This is an account of results in US7879862B2, “Pyrazolo[1,5-alpha]pyrimidinyl derivatives useful as corticotropin-releasing factor (CRF) receptor antagonists” (SmithKline Beecham (Cork) Limited, priority 2004, dated 2011).

SMILES strings stand for the structures. Some results are limits rather than exact numbers.

This assay deals with T1, human CRF receptors (Homo sapiens, UniProt P34998).
T1 construct: expressed in transfected cells
T1 sequence (P34998 24-415): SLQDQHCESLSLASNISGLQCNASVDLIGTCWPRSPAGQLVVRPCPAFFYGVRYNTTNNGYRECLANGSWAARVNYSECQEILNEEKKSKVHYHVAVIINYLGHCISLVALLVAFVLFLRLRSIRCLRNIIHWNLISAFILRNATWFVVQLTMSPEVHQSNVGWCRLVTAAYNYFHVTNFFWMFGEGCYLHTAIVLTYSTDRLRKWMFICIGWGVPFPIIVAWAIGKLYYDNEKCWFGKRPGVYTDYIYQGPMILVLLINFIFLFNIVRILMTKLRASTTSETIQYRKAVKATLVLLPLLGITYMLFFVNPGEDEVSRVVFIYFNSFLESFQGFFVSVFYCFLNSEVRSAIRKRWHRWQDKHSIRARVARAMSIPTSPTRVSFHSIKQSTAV
The experiment in a line: CRF receptor binding activity (radioligand displacement, Example 25). The following applies: displacement of [125I] tyrosine-sauvagine from membranes of cells stably transfected with human CRF receptors; less than 0.10 μM (i.e., 100 nM); read-out: Ki (CRF receptor binding affinity). The source says: The effectiveness of a compound as a CRF receptor antagonist may be determined by various assay methods. […] CRF receptor affinity may be determined by binding studies that measure the ability of a compound to inhibit the binding of a radiolabeled CRF (e.g., [^125I]tyrosine-CFR) to its receptor (e.g., receptors prepared from rat cerebral cortex membranes). The radioligand binding assay described by DeSouza et al. (supra, 1987) provides an assay for determining a compound's affinity for the CRF receptor.
[formula] where L=radioligand and KD=affinity of radioligand for receptor (Cheng and Prusoff, Biochem. Pharmacol. 22:3099, 1973).
By utilizing radiolabeled CRF ligands, the assay may be used to evaluate the binding activity of the compounds of the present invention with any CRF receptor subtype.
Briefly, the binding assay involves the displacement of a radiolabeled CRF ligand from the CRF receptor. More specifically, the binding assay is performed in 96-well assay plates using 1-10 μg cell membranes from cells stably transfected with human CRF receptors. […] The mixture is incubated for 2 hours at 22° C. followed by separation of the bound and free radioligand by rapid filtration over glass fiber filters. Following three washes, the filters are dried and radioactivity (Auger electrons from ^125I) is counted using a scintillation counter. All radioligand binding data may be analyzed using the non-linear least-squares curve-fitting programs Prism (GraphPad Software Inc) or XLfit (ID Business Solutions Ltd).
(In general: Displacement assays read how much labelled ligand stays bound in the presence of the test substance.)

On to `CCC(Nc1cc(C)nc2c(-c3ccc(Cl)cc3C)c(C)nn12)c1nc(C)no1` (centres unmarked) [Example 24-4, [3-(4-Chloro-2-methyl-phenyl)-2,5-dimethyl-pyrazolo[1,5-a]pyrimidin-7-yl]-[1-(3-methyl-[1,2,4]oxadiazol-5-yl)-propyl]-amine], for which the Ki (commonly a dissociation constant, usually derived from enzyme kinetics or from competition with a known ligand) was under 100 nM. On to `CCC(Nc1cc(C)nc2c(-c3ccc(C)cc3Cl)c(C)nn12)c1nc(C)no1` (centres unmarked) [Example 24-6, [3-(2-Chloro-4-methyl-phenyl)-2,5-dimethyl-pyrazolo[1,5-a]pyrimidin-7-yl]-[1-(3-methyl-[1,2,4]oxadiazol-5-yl)-propyl]-amine], for which the Ki is under 100 nM.
